{
  "source": "paper PMC10449633",
  "about": "(Nature Chemical Biology, 2023)",
  "key": {"[1]": {"test_system": "mouse skin inflammation model", "parameters": "method as in PMID 26019221", "conditions": "at its maximum tolerated dose; cited from earlier work"}, "[2]": {"molecular_target": "T1, Sec61 (Homo sapiens, UniProt P61619)", "T1 construct": "endogenous in cells", "T1 sequence (P61619 whole entry)": "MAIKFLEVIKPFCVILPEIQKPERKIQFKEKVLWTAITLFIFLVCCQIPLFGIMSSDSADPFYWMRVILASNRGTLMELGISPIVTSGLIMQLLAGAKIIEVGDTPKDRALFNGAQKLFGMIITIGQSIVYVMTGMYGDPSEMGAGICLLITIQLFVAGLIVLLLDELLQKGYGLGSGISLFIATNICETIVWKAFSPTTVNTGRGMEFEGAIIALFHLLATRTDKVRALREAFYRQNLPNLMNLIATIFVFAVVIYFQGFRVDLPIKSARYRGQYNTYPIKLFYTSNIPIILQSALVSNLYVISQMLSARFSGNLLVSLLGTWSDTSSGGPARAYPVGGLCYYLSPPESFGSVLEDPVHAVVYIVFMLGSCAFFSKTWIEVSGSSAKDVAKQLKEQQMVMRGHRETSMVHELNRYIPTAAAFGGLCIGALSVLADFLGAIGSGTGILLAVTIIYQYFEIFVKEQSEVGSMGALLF", "T1 sequence (P60059 whole entry, further chain)": "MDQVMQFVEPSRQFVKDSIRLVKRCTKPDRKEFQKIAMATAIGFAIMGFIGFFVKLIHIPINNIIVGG", "T1 sequence (P60468 whole entry, further chain)": "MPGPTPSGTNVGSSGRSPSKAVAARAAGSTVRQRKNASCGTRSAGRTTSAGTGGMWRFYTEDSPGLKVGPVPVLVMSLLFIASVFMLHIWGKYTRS", "assay": "cell-based", "assay_type": "cell-based"}},
  "note": "“And” between values parts separate entries of the source, which are not always exact repeats. Equal values may be shown once.",
  "data": [
    {"substance": "mycolactone A/B", "values": [
      {"measurement": "efficacy in mouse skin inflammation model", "setting": "[1]", "result": "modest efficacy"},
      {"measurement": "potency against VCAM-GLuc relative to pPL-GLuc", "setting": "[2]; HEK293T, 24 h", "result": "equipotent"},
      {"measurement": "secreted luciferase activity (% of no-drug control)", "setting": "[2]; VCAM signal peptide, Drug nM (log10) 0.18303", "result": "91.1752% and 96.3566% and 105.08% and 96.2111%"},
      {"measurement": "secreted luciferase activity (% of no-drug control)", "setting": "[2]; VCAM signal peptide, Drug nM (log10) 0.660151", "result": "60.5653% and 60.6911% and 72.2191% and 65.68%"},
      {"measurement": "secreted luciferase activity (% of no-drug control)", "setting": "[2]; VCAM signal peptide, Drug nM (log10) 1.13727", "result": "69.7373% and 62.7916% and 84.5753% and 63.8152%"},
      {"measurement": "secreted luciferase activity (% of no-drug control)", "setting": "[2]; VCAM signal peptide, Drug nM (log10) 1.61439", "result": "23.3051% and 17.9704% and 24.3586% and 17.2696%"},
      {"measurement": "secreted luciferase activity (% of no-drug control)", "setting": "[2]; VCAM signal peptide, Drug nM (log10) 2.09151", "result": "9.614% and 7.324% and 15.2923% and 7.158%"},
      {"measurement": "secreted luciferase activity (% of no-drug control)", "setting": "[2]; VCAM signal peptide, Drug nM (log10) 2.56864", "result": "5.834% and 4.881% and 8.3778% and 4.722%"},
      {"measurement": "secreted luciferase activity (% of no-drug control)", "setting": "[2]; VCAM signal peptide, Drug nM (log10) 3.04576", "result": "4.831% and 3.708% and 6.049% and 3.853%"},
      {"measurement": "secreted luciferase activity (% of no-drug control)", "setting": "[2]; VCAM signal peptide, Drug nM (log10) 3.52288", "result": "3.813% and 3.595% and 4.497% and 3.349%"},
      {"measurement": "secreted luciferase activity (% of no-drug control)", "setting": "[2]; VCAM signal peptide, Drug nM (log10) 4", "result": "4.399% and 3.701% and 4.702% and 3.31%"},
      {"measurement": "secreted luciferase activity (% of no-drug control)", "setting": "[2]; VCAM signal peptide, Drug nM (log10) -0.29409", "result": "91.3897% and 90.48% and 98.9457% and 92.5099%"},
      {"measurement": "secreted luciferase activity (% of no-drug control)", "setting": "[2]; pPL signal peptide, Drug nM (log10) 0.18303", "result": "96.941% and 113.105% and 106.161% and 90.9819%"},
      {"measurement": "secreted luciferase activity (% of no-drug control)", "setting": "[2]; pPL signal peptide, Drug nM (log10) 0.660151", "result": "87.4346% and 105.37% and 92.2325% and 88.4507%"},
      {"measurement": "secreted luciferase activity (% of no-drug control)", "setting": "[2]; pPL signal peptide, Drug nM (log10) 1.13727", "result": "90.1482% and 100.766% and 90.4471% and 85.7727%"},
      {"measurement": "secreted luciferase activity (% of no-drug control)", "setting": "[2]; pPL signal peptide, Drug nM (log10) 1.61439", "result": "34.1743% and 36.4459% and 25.7816% and 32.3021%"},
      {"measurement": "secreted luciferase activity (% of no-drug control)", "setting": "[2]; pPL signal peptide, Drug nM (log10) 2.09151", "result": "11.7024% and 15.7348% and 12.066% and 11.9677%"},
      {"measurement": "secreted luciferase activity (% of no-drug control)", "setting": "[2]; pPL signal peptide, Drug nM (log10) 2.56864", "result": "10.1212% and 10.0148% and 7.898% and 9.649%"},
      {"measurement": "secreted luciferase activity (% of no-drug control)", "setting": "[2]; pPL signal peptide, Drug nM (log10) 3.04576", "result": "5.549% and 7.948% and 6.334% and 6.2294%"},
      {"measurement": "secreted luciferase activity (% of no-drug control)", "setting": "[2]; pPL signal peptide, Drug nM (log10) 3.52288", "result": "4.849% and 7.368% and 5.461% and 6.2207%"},
      {"measurement": "secreted luciferase activity (% of no-drug control)", "setting": "[2]; pPL signal peptide, Drug nM (log10) 4", "result": "4.167% and 6.905% and 5.234% and 5.9772%"},
      {"measurement": "secreted luciferase activity (% of no-drug control)", "setting": "[2]; pPL signal peptide, Drug nM (log10) -0.29409", "result": "102.214% and 111.849% and 98.9284% and 92.0234%"}
    ]}
  ]
}
